Data as given in publication PMC10847070, “State-independent inhibition of the oncogenic Kv10.1 channel by desethylamiodarone, a comparison with amiodarone” (Pflugers Archiv, 2023).

Biological target: T1, Kv10.1 (Eag1) (Homo sapiens, UniProt O95259)
T1 construct: gene KCNH1
T1 sequence (O95259 1-989): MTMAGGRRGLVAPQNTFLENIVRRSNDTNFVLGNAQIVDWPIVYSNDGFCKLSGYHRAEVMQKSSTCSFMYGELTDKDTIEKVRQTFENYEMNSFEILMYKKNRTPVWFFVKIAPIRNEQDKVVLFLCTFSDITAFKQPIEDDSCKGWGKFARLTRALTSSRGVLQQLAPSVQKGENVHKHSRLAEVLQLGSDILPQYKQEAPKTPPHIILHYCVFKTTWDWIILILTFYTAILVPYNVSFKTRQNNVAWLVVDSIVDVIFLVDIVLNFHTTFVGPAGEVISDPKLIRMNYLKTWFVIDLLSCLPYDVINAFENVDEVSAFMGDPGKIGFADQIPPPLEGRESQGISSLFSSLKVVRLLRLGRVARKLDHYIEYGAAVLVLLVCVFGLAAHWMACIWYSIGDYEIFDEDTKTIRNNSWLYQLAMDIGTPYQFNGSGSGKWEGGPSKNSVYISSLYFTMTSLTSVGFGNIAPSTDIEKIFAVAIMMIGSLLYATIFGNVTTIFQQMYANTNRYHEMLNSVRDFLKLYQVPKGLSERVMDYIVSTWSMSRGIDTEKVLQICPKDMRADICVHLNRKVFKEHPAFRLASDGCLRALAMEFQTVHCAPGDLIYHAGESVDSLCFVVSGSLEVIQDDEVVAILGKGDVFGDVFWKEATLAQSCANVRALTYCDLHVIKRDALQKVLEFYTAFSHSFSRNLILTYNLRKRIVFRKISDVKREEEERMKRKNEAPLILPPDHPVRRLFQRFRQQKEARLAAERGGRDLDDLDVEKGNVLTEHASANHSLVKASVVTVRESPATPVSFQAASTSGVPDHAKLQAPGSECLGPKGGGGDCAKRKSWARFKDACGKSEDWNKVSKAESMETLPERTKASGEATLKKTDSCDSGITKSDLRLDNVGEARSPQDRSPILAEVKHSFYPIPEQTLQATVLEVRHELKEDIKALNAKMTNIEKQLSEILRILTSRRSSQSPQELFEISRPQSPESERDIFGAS
Experiment: patch-clamp electrophysiology of HEK293 cells stably expressing Kv10.[…]; dose-response at +[…] mV
Type: cell-based

- Kd: 1200 nM
Structure (SMILES): CCCCc1oc2ccccc2c1C(=O)c1cc(I)c(OCCNCC)c(I)c1 [desAd, desethylamiodarone]
